Experimental data as given in publication PMC6036094 (International Journal of Medical Sciences, 2018).
Like-named read-outs stand apart in the source and are kept apart here.

Format: in vivo, Male Wistar rats
Conditions: for concentration at 1 h / concentration at 8 h / concentration at 24 h: male, Wistar, rat, po; for Concentration in kidneys / Concentration in small intestine / Kidney-to-plasma concentration ratio / Skin tissue-to-plasma concentration ratio / Small intestine-to-plasma concentration ratio / Concentration in skin tissue: mean ± SD
[1] = 1 to 24 h after oral administration

Row | Time course of kidney-to-plasma concentration ratio [1] | concentration at 1 h (kidneys) [ng/g] | concentration at 8 h (kidneys) [ng/g] | concentration at 24 h (kidneys) [ng/g] | concentration at 1 h (skin tissue) [ng/g] | concentration at 8 h (skin tissue) [ng/g] | concentration at 1 h (small intestine) [ng/g] | concentration at 8 h (small intestine) [ng/g] | Skin tissue-to-plasma concentration ratio (1 h after oral administration) | Skin tissue-to-plasma concentration ratio (24 h after oral administration) | SMILES | other results
1 | increased time-dependently | 848 ± 116 | 492 ± 101 | 201 ± 42.9 | 103 ± 29.2 | 27.1 ± 3.2 | 1360 ± 513 | 250 ± 114 |  |  | CCc1ccc(Cc2ccc3c(c2)[C@]2(OC3)O[C@H](CO)[C@@H](O)[C@H](O)[C@H]2O)cc1 [Tofogliflozin, tofogliflozin] | 
2 |  |  |  |  |  |  |  |  | 0.18±0.18 | 0.26±0.20 | Cc1ccc([C@@H]2O[C@H](CO)[C@@H](O)[C@H](O)[C@H]2O)cc1Cc1ccc(-c2ccc(F)cc2)s1 [Canagliflozin, canagliflozin] | Concentration in kidneys (1 h after oral administration): 802.7 ± 269.2 ng/g; Concentration in small intestine (1 h after oral administration): 2925.2 ± 1074.2 ng/g; Kidney-to-plasma concentration ratio (1 h after oral administration): 3.69±2.84; Small intestine-to-plasma concentration ratio (1 h after oral administration): 12.93±9.88; Concentration in kidneys (8 h after oral administration): 1014.1 ± 306.0 ng/g; Concentration in skin tissue (8 h after oral administration): 82.6 ± 22.9 ng/g; Concentration in small intestine (8 h after oral administration): 440.1 ± 117.2 ng/g; Kidney-to-plasma concentration ratio (8 h after oral administration): 2.11±0.54; Skin tissue-to-plasma concentration ratio (8 h after oral administration): 0.17±0.03; Small intestine-to-plasma concentration ratio (8 h after oral administration): 0.92±0.20; Concentration in kidneys (24 h after oral administration): 636.2 ± 222.5 ng/g; Concentration in skin tissue (24 h after oral administration): 20.1 ± 11.6 ng/g; Concentration in small intestine (24 h after oral administration): 325.9 ± 218.0 ng/g; Kidney-to-plasma concentration ratio (24 h after oral administration): 7.55±2.62; Small intestine-to-plasma concentration ratio (24 h after oral administration): 4.05±2.83
3 |  | 94.9 ± 74.3 | 80.1 ± 51.7 |  |  |  | 251 ± 178 |  |  |  | CCOc1ccc(Cc2cc([C@@H]3S[C@H](CO)[C@@H](O)[C@H](O)[C@H]3O)c(OC)cc2C)cc1 [Luseogliflozin, luseogliflozin] | 

Continued, compound first:

Row | SMILES | Time course of kidney-to-plasma concentration ratio [1] | concentration at 1 h (kidneys) [ng/g] | concentration at 8 h (kidneys) [ng/g] | concentration at 24 h (kidneys) [ng/g] | concentration at 1 h (skin tissue) [ng/g] | concentration at 8 h (skin tissue) [ng/g] | concentration at 1 h (small intestine) [ng/g] | concentration at 8 h (small intestine) [ng/g] | Skin tissue-to-plasma concentration ratio (1 h after oral administration) | Skin tissue-to-plasma concentration ratio (24 h after oral administration) | other results
4 | CCOc1ccc(Cc2cc([C@@H]3O[C@H](CO)[C@@H](O)[C@H](O)[C@H]3O)ccc2Cl)cc1 [Dapagliflozin, dapagliflozin] |  | 1030 ± 521 | 531 ± 191 | 170 ± 40.2 | 42.6 ± 24.7 | 13 ± 5 | 37.9 ± 10.3 | 19.7 ± 6.7 |  |  | 
5 | OC[C@H]1O[C@@H](c2ccc(F)c(Cc3cc4ccccc4s3)c2)[C@H](O)[C@@H](O)[C@@H]1O [Ipragliflozin, ipragliflozin] | tended to increase | 1420 ± 405 | 1090 ± 456 | 301 ± 86.9 | 152 ± 53.4 | 168 ± 28.7 | 730 ± 377 | 348 ± 105 | 0.45±0.20 | 5.82±3.66 | Time course of skin tissue-to-plasma concentration ratio [1]: increased in a time-dependent manner; Skin tissue-to-plasma concentration ratio (1 h after oral administration, listed as ipragliflozin): 0.45 ± 0.20; Skin tissue-to-plasma concentration ratio (24 h after oral administration, listed as ipragliflozin): 5.82 ± 3.66; concentration at 24 h (skin tissue, 1 mg/kg): 90.6 ± 38.9 ng/g
